From ChEMBL document CHEMBL2417411, “Design and synthesis of novel 2'-hydroxy group substituted 2-pyridone derivatives as anticancer agents” (Eur J Med Chem, 2013) come the findings set out here.

Data set [1] has as its system MDA-MB-231. Description: cells. Particulars: Homo sapiens, MDA-MB-231, 48 h.
Description: Cytotoxicity against human MDA-MB-231 cells after 48 hrs by MTT assay
For data set [2], the system named is SW480. Description: cells. Particulars: Homo sapiens, SW480, 48 h.
Description: Cytotoxicity against human SW480 cells after 48 hrs by MTT assay
Data set [3] can be described thus: cells. As to conditions: Homo sapiens, QGY7701, 48 h.
Description: Cytotoxicity against human QGY7701 cells after 48 hrs by MTT assay
The subject of data set [4] is SGC-7901. Description: cells. As to conditions: Homo sapiens, SGC-7901, 48 h.
Description: Cytotoxicity against human SGC7901 cells after 48 hrs by MTT assay
A short description of data set [5]: physchem. Particulars: octanol/water.
Description: Lipophilicity, log P of the compound
The subject of data set [6] is A549. Description: cells. As to conditions: Homo sapiens, A549, 48 h.
Description: Cytotoxicity against human A549 cells after 48 hrs by MTT assay
The subject of data set [7] is HeLa. Description: cells. As to conditions: Homo sapiens, 48 h.
Description: Cytotoxicity against human HeLa cells after 48 hrs by MTT assay

Each structure is given as a SMILES string.

A word on the IC50: it is the point on the concentration scale where inhibition reaches its midpoint. The logP is the decadic logarithm of the partition coefficient of the neutral form, usually between octanol and water. Consider `COc1ccc(C(=O)c2ccc(=O)n(-c3ccccc3C)c2)c(OCc2cn(Cc3ccc(Cl)cc3Cl)nn2)c1`, for which the IC50 in data set [1] amounted to 1.19 µM; in data set [2], 2.22 µM; in data set [3], 6.43 µM; in data set [4], 0.41 µM; in data set [6], 2.56 µM; in data set [7] it was 3.51 µM. This compound showed a logP in data set [5] of 4.23.
With `COc1ccc(C(=O)c2ccc(=O)n(-c3ccccc3C)c2)c(OCc2cn(Cc3cccc(Cl)c3)nn2)c1`, the IC50 is 0.38 µM in data set [1]; 1.37 µM in data set [2]; more than 30 µM in data set [3]; more than 30 µM in data set [4]; 1.53 µM in data set [6]; 3.71 µM in data set [7]. The same compound showed a logP in data set [5] of 4.05.
On to `COc1ccc(C(=O)c2ccc(=O)n(-c3ccccc3C)c2)c(OCc2cn(Cc3ccccc3F)nn2)c1`, for which the IC50 in data set [1] is 1.14 µM; in data set [2] it was 3.28 µM; in data set [3], more than 30 µM; in data set [4] it was more than 30 µM; in data set [6], 3.96 µM; in data set [7], 4.83 µM. Further, in data set [5], the logP is 3.59.
For the compound `COc1ccc(C(=O)c2ccc(=O)n(-c3ccccc3C)c2)c(OCc2cn(Cc3cccc(F)c3)nn2)c1`, the IC50 was 1.24 µM in data set [1]; 2.23 µM in data set [2]; more than 30 µM in data set [3]; more than 30 µM in data set [4]; 3.06 µM in data set [6]; 5.75 µM in data set [7]. The logP in data set [5] stood at 3.59.
In the case of `COc1ccc(C(=O)c2ccc(=O)n(-c3ccccc3C)c2)c(OCc2cn(Cc3ccc(F)cc3)nn2)c1`, the IC50 in data set [1] amounted to 1.46 µM; in data set [2], 2.37 µM; in data set [3] it was 5.44 µM; in data set [4] it was 0.19 µM; in data set [6], 0.48 µM; in data set [7] it was 8.48 µM. The compound further registered a logP in data set [5] of 3.59.
In the case of `COc1ccc(C(=O)c2ccc(=O)n(-c3ccccc3C)c2)c(OCc2cn(Cc3ccccc3C)nn2)c1`, the IC50 was 1.34 µM in data set [1]; 3.07 µM in data set [2]; 4.63 µM in data set [3]; more than 30 µM in data set [4]; 3.21 µM in data set [6]; 4.86 µM in data set [7]. In data set [5], this compound returned a logP of 4.1.
Consider `COc1ccc(C(=O)c2ccc(=O)n(-c3ccccc3C)c2)c(OCc2cn(Cc3cccc(C)c3)nn2)c1`, for which the IC50 in data set [1] is 0.21 µM; in data set [2] it was 2.45 µM; in data set [3], 6.38 µM; in data set [4], more than 30 µM; in data set [6], 3.25 µM; in data set [7], 3.27 µM. In data set [5], the lipophilicity (logP) came to 4.1.
`COc1ccc(C(=O)c2ccc(=O)n(-c3ccccc3C)c2)c(OCc2cn(Cc3ccc(C)cc3)nn2)c1`: the IC50 in data set [1] was 0.49 µM; in data set [2], 0.48 µM; in data set [3], more than 30 µM; in data set [4] it was 5.48 µM; in data set [6], 0.61 µM; in data set [7], 0.38 µM. Further, in data set [5], the logP turned out to be 4.1.
As to `COc1ccc(Cn2cc(COc3cc(OC)ccc3C(=O)c3ccc(=O)n(-c4ccccc4C)c3)nn2)cc1`, the IC50 in data set [1] was 0.59 µM; in data set [2], more than 30 µM; in data set [3], more than 30 µM; in data set [4], 1.28 µM; in data set [6], 1.54 µM; in data set [7] it was 0.99 µM. This compound also registered a logP in data set [5] of 3.79.
As for `COc1ccc(C(=O)c2ccc(=O)n(-c3ccccc3C)c2)c(OC(=O)c2ccc(Cl)cc2)c1`, the concentration for half-maximal inhibition (IC50) was 1.84 µM in data set [1]; 1.33 µM in data set [2]; more than 30 µM in data set [3]; 5.79 µM in data set [4]; 5.23 µM in data set [6]; 1.56 µM in data set [7]. The compound also yielded a logP in data set [5] of 4.27.
As for `COc1ccc(C(=O)c2ccc(=O)n(-c3ccccc3C)c2)c(OC(=O)c2ccc(F)cc2)c1`, the IC50 was 2.35 µM in data set [1]; 2.78 µM in data set [2]; 9.64 µM in data set [3]; 3.62 µM in data set [4]; 3.68 µM in data set [6]; 6.86 µM in data set [7]. This compound also showed a logP in data set [5] of 3.81.
Consider `COc1ccc(C(=O)c2ccc(=O)n(-c3ccccc3C)c2)c(OC(C)=O)c1`, for which the IC50 was more than 30 µM in data set [1]; more than 30 µM in data set [2]; more than 30 µM in data set [3]; 6.21 µM in data set [4]; more than 30 µM in data set [6]; more than 30 µM in data set [7]. For the same compound, in data set [5], the logP was 2.7.
`COc1ccc(C(=O)c2ccc(=O)n(-c3ccccc3C)c2)c(OC(=O)c2ccccc2)c1`: the IC50 was 1.18 µM in data set [1]; 3.12 µM in data set [2]; more than 30 µM in data set [3]; 1.42 µM in data set [4]; 4.47 µM in data set [6]; 7.29 µM in data set [7]. This compound also came in with a logP in data set [5] of 4.09.
In the case of `COc1ccc(C(=O)c2ccc(=O)n(-c3ccccc3C)c2)c(OC(=O)Cc2ccc(Cl)cc2)c1`, the IC50 came to 2.44 µM in data set [1]; 0.58 µM in data set [2]; 5.68 µM in data set [3]; 3.48 µM in data set [4]; 0.49 µM in data set [6]; 0.58 µM in data set [7]. In data set [5], this compound registered a logP of 4.4.
Take `COc1ccc(C(=O)c2ccc(=O)n(-c3ccccc3C)c2)c(OC(=O)Cc2ccccc2Cl)c1`: the IC50 worked out at 2.97 µM in data set [1]; 1.17 µM in data set [2]; 6.05 µM in data set [3]; 1.45 µM in data set [4]; 1.94 µM in data set [6]; 0.87 µM in data set [7]. For the same compound, the logP in data set [5] was 4.4.
With `COc1ccc(C(=O)c2ccc(=O)n(-c3ccccc3C)c2)c(OC(=O)c2cc([N+](=O)[O-])cc([N+](=O)[O-])c2)c1`, the IC50 in data set [1] is 3.28 µM; in data set [2], 2.75 µM; in data set [3] it was more than 30 µM; in data set [4] it was 2.44 µM; in data set [6], 3.89 µM; in data set [7], 5.33 µM. This compound also came in with a logP in data set [5] of 3.88.
For `CCCOC(=O)Oc1cc(OC)ccc1C(=O)c1ccc(=O)n(-c2ccccc2C)c1`, the IC50 in data set [1] was 2.11 µM; in data set [2], 5.97 µM; in data set [3] it was more than 30 µM; in data set [4] it was 4.18 µM; in data set [6], 6.13 µM; in data set [7] it was 7.03 µM. In data set [5], the logP was 3.31.
For `CCOC(=O)Oc1cc(OC)ccc1C(=O)c1ccc(=O)n(-c2ccccc2C)c1`, the IC50 in data set [1] is more than 30 µM; in data set [2], 4.56 µM; in data set [3] it was more than 30 µM; in data set [4], 3.35 µM; in data set [6] it was 5.83 µM; in data set [7], 7.44 µM. The compound further returned a logP in data set [5] of 2.95.
`C#CCOc1cc(OC)ccc1C(=O)c1ccc(=O)n(-c2ccccc2C)c1`: the IC50 in data set [1] is more than 30 µM; in data set [2] it was 5.33 µM; in data set [3] it was 9.08 µM; in data set [4], 6.94 µM; in data set [6], 7.59 µM; in data set [7], 7.82 µM.
Consider `COc1ccc(C(=O)c2ccc(=O)n(-c3ccccc3C)c2)c(OCc2cn(Cc3ccccc3)nn2)c1`, for which the IC50 is more than 30 µM in data set [1]; 2.51 µM in data set [2]; more than 30 µM in data set [3]; 1.25 µM in data set [4]; 3.64 µM in data set [6]; 4.23 µM in data set [7]. Also, in data set [5], the logP is 3.88.
For `COc1ccc(C(=O)c2ccc(=O)n(-c3ccccc3C)c2)c(OCc2cn(Cc3ccccc3Br)nn2)c1`, the IC50 in data set [1] is more than 30 µM; in data set [2] it was 3.62 µM; in data set [3], more than 30 µM; in data set [4], 1.23 µM; in data set [6], 5.35 µM; in data set [7], 5.22 µM. Further, in data set [5], the logP was 4.05.
Turning to `COc1ccc(C(=O)c2ccc(=O)n(-c3ccccc3C)c2)c(OCc2cn(Cc3cccc(Br)c3)nn2)c1`, the IC50 in data set [1] was more than 30 µM; in data set [2], 2.32 µM; in data set [3], more than 30 µM; in data set [4], 5.68 µM; in data set [6], 4.46 µM; in data set [7], 4.52 µM. Moreover, the logP in data set [5] worked out at 4.05.
As to `COc1ccc(C(=O)c2ccc(=O)n(-c3ccccc3C)c2)c(OCc2cn(Cc3ccc(Br)cc3)nn2)c1`, the IC50 in data set [1] was 2.47 µM; in data set [2] it was more than 30 µM; in data set [3], 4.99 µM; in data set [4], 2.29 µM; in data set [6] it was 5.45 µM; in data set [7], 4.25 µM. In addition, in data set [5], the logP was found to be 4.23.
`COc1ccc(C(=O)c2ccc(=O)n(-c3ccccc3C)c2)c(OCc2cn(Cc3ccccc3C#N)nn2)c1`: the IC50 in data set [1] was more than 30 µM; in data set [2], more than 30 µM; in data set [3], more than 30 µM; in data set [4] it was more than 30 µM; in data set [6], 8.32 µM; in data set [7], 8.05 µM. Further, the logP in data set [5] was determined as 3.6.
With `COc1ccc(C(=O)c2ccc(=O)n(-c3ccccc3C)c2)c(OCc2cn(Cc3ccc(C#N)cc3)nn2)c1`, the IC50 was 0.43 µM in data set [1]; more than 30 µM in data set [2]; 2.87 µM in data set [3]; more than 30 µM in data set [4]; 4.31 µM in data set [6]; 0.89 µM in data set [7]. Also, the log partition coefficient (logP) in data set [5] was 3.6.
`COc1ccc(C(=O)c2ccc(=O)n(-c3ccccc3C)c2)c(OCc2cn(Cc3cccc(O[N+](=O)[O-])c3)nn2)c1`: the half-inhibitory concentration (IC50) in data set [1] came to 1.39 µM; in data set [2], 4.42 µM; in data set [3], 3.01 µM; in data set [4], 0.55 µM; in data set [6] it was 3.61 µM; in data set [7] it was 3.12 µM. For the same compound, in data set [5], the logP came to 3.77.
Regarding `COc1ccc(C(=O)c2ccc(=O)n(-c3ccccc3C)c2)c(OCc2cn(Cc3ccccc3Cl)nn2)c1`, the IC50 in data set [1] was 0.38 µM; in data set [2], 0.39 µM; in data set [3], 4.72 µM; in data set [4] it was more than 30 µM; in data set [6], 0.69 µM; in data set [7], 1.7 µM. In data set [5], this compound returned a logP of 4.05.
On to `O=c1[nH]cc(F)c(=O)[nH]1` [FLUOROURACIL], for which, in data set [7], the half-inhibitory concentration (IC50) is 16.5 µM.
